Test results reported in ChEMBL document CHEMBL6083183, “Discovery and Hit to Lead Optimization of Macrocyclic Peptides as Novel Tropomyosin Receptor Kinase A Antagonists” (J Med Chem, 2024).
Bridge positions count the residues as written; N and C are the ends. Square brackets hold non-standard residues; d marks the D form. Peptide text beside a SMILES is read from it. NMeF = CN[C@@H](Cc1ccccc1)C(=O)O; Sar = CNCC(=O)O

Key:
[1] = Total clearance in Sprague-Dawley rat at 1 umol/kg, iv administered as cassette dose measured upto 6 hrs by LC-MS/MS method; assay type: ADME, organism-based; settings: in vivo, dose 1 µmol/kg
[2] = AUC in Sprague-Dawley rat at 1 umol/kg, iv administered as cassette dose measured upto 6 hrs by LC-MS/MS method; assay type: ADME, organism-based; settings: in vivo, dose 1 µmol/kg
[3] = Stability in human serum assessed as compound degradation incubated for 22 hrs by LC-MS/MS method; assay type: ADME, cell-free
[4] = target: T1, High affinity nerve growth factor receptor (Homo sapiens, UniProt P04629); test: Inhibition of human TrkA assessed as beta-galactosidase activity pretreated with NGF followed by […] and measured after 180 mins by pathhunter assay
[5] = Stability in rat serum assessed as half-life incubated for 22 to 24 hrs by LC-MS/MS method; assay type: ADME, cell-free; settings: time 22-24 hrs
Rattus norvegicus [6] = test: Analgesic activity in rat Brennan's incision pain model assessed as reduction in pain at 30 mg/kg, iv administered 3 times at every 2 hrs and measured after 6 hrs; assay type: functional; set-up: scale not given: the % may be the effect or the level left
Rattus norvegicus [7] = test: Analgesic activity in rat Brennan's incision pain model assessed as reduction in pain at 10 mg/kg, iv administered 3 times at every 2 hrs and measured after 6 hrs; assay type: functional, organism-based
Rattus norvegicus [8] = test: Analgesic activity in iv dosed rat Brennan's incision pain model assessed as reduction in pain administered 3 times at every 2 hrs and measured after 6 hrs; assay type: functional, organism-based; settings: dose 3-30 mg/kg
[9] = Stability in human serum assessed as half-life incubated for 22 to 24 hrs by LC-MS/MS method; assay type: ADME, cell-free; settings: time 22-24 hrs
[10] = Toxicity in rat at 30 mg/kg, iv administered 3 times at every 2 hrs and measured after 6 hrs; assay type: organism-based; settings: in vivo
[11] = Inhibition of Fc-tagged human TrkA extracellular domain to biotinylated human NGF protein-protein interaction preincubated for 1 hr followed by NGF addition and measured after 3 hrs by ELISA
[12] = target: T1, High affinity nerve growth factor receptor; test: Binding affinity to Fc-tagged human TrkA extracellular domain by SPR method

T1 sequence (P04629 whole entry): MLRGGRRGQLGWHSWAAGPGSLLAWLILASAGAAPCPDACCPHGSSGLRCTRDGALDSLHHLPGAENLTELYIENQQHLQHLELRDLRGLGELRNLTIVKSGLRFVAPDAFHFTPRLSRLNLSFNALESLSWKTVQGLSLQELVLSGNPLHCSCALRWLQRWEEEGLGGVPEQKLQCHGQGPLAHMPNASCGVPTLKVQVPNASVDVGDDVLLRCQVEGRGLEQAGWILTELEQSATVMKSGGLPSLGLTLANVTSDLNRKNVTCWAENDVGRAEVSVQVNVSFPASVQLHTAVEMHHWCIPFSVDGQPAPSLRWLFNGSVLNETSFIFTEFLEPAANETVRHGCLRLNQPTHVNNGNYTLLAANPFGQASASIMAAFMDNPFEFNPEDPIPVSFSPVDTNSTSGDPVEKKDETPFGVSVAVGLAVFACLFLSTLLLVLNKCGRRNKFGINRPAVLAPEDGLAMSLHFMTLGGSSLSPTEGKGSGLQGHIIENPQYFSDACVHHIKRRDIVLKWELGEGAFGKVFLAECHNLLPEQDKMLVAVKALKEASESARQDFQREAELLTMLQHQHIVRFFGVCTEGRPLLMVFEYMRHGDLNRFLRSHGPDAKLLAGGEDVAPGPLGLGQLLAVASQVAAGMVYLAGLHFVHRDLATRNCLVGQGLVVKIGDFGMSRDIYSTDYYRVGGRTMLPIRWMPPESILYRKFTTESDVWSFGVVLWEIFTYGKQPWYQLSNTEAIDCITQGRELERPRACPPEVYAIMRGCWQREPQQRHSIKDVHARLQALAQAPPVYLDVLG

SMILES | clearance [1] | AUC at 6 h [2] | Stability [3] | IC50 [4] | half-life [5] | Activity (Rattus norvegicus [6]) | Activity (Rattus norvegicus [7]) | Activity (Rattus norvegicus [8]) | half-life [9] | Activity [10] | IC50 [11] | Kd [12]
CC(C)C[C@@H]1NC(=O)[C@H](CCCNC(=N)N)NC(=O)CNC(=O)[C@H](Cc2ccccc2)N(C)C(=O)CNC(=O)[C@H](Cc2c[nH]c3ccccc23)NC(=O)[C@H](Cc2ccc(O)cc2)NC(=O)[C@H](CO)NC(=O)[C@H](C(C)C)NC(=O)[C@H](CO)NC(=O)[C@H](CCCCN)NC(=O)[C@H](Cc2ccccc2)NC(=O)CSC[C@@H](C(=O)N(C)CC(N)=O)NC(=O)[C@H](Cc2c[nH]cn2)NC(=O)[C@H](CC(N)=O)NC(=O)[C@H](Cc2ccc(O)cc2)NC(=O)[C@H](Cc2ccc(O)cc2)NC(=O)[C@H](CO)NC1=O ({CH2CO}-FKSVSYWG[NMeF]GRLSYYNHC[Sar]-NH2; thioether N-18) | 66.2 mL/min/kg | 0.305 µM·h | Unstable | 23 nM | 11.3 h |  |  |  |  |  |  | 
CC(C)C[C@@H]1NC(=O)[C@H](C(C)C)NC(=O)CNC(=O)[C@H](Cc2ccccc2)N(C)C(=O)CNC(=O)[C@H](Cc2c[nH]cn2)NC(=O)[C@H](Cc2ccc(O)cc2)NC(=O)[C@H](CCC(=O)O)NC(=O)[C@H](C(C)C)NC(=O)[C@H](CO)NC(=O)[C@H](CO)NC(=O)[C@H](Cc2ccccc2)NC(=O)CSC[C@@H](C(=O)NCC(N)=O)NC(=O)[C@H](Cc2c[nH]cn2)NC(=O)[C@H](CC(=O)O)NC(=O)[C@H](Cc2ccc(O)cc2)NC(=O)[C@H](Cc2c[nH]c3ccccc23)NC(=O)[C@H](C(C)C)NC1=O ({CH2CO}-FSSVEYHG[NMeF]GVLVWYDHCG-NH2; thioether N-18) | 13.9 mL/min/kg | 1.2 µM·h |  | 21 nM | > 72 h | 40% | Active; Activity Comparable To 1 Mg/Kg Morphine | Dose-dependent-effect | > 72 h | Non-toxic |  | 
CC(C)C[C@@H]1NC(=O)[C@H](CC(N)=O)NC(=O)CNC(=O)[C@H](Cc2ccccc2)N(C)C(=O)CNC(=O)[C@H](Cc2c[nH]c3ccccc23)NC(=O)[C@H](Cc2ccc(O)cc2)NC(=O)[C@H](CO)NC(=O)[C@H](C(C)C)NC(=O)[C@H](CO)NC(=O)[C@H](CO)NC(=O)[C@H](Cc2ccccc2)NC(=O)CSC[C@@H](C(=O)NCC(N)=O)NC(=O)[C@H](Cc2c[nH]cn2)NC(=O)[C@H](CO)NC(=O)[C@H](Cc2ccc(O)cc2)NC(=O)[C@H](Cc2c[nH]c3ccccc23)NC(=O)[C@H](C(C)C)NC1=O ({CH2CO}-FSSVSYWG[NMeF]GNLVWYSHCG-NH2; thioether N-18) |  |  |  | 425 nM | 47.8 h |  |  |  | 9.3 h |  | 10.8 nM | 15.9 nM
